These results are taken from patent US7250442B2, “Dihydroindol-2-one derivatives as steroid hormone nuclear receptor modulators” (Eli Lilly and Company, priority 2003, dated 2007).

Where only a bound is given, the exact number is not on record here.

This experiment addresses T1, human MR (Homo sapiens, UniProt P08235).
T1 construct: The full length human MR gene is cloned from a human kidney or human brain cDNA library; made in house; host or cells: Sf9 insect cells (baculovirus, pAcHLT transfer vector)
T1 sequence (P08235 1-984): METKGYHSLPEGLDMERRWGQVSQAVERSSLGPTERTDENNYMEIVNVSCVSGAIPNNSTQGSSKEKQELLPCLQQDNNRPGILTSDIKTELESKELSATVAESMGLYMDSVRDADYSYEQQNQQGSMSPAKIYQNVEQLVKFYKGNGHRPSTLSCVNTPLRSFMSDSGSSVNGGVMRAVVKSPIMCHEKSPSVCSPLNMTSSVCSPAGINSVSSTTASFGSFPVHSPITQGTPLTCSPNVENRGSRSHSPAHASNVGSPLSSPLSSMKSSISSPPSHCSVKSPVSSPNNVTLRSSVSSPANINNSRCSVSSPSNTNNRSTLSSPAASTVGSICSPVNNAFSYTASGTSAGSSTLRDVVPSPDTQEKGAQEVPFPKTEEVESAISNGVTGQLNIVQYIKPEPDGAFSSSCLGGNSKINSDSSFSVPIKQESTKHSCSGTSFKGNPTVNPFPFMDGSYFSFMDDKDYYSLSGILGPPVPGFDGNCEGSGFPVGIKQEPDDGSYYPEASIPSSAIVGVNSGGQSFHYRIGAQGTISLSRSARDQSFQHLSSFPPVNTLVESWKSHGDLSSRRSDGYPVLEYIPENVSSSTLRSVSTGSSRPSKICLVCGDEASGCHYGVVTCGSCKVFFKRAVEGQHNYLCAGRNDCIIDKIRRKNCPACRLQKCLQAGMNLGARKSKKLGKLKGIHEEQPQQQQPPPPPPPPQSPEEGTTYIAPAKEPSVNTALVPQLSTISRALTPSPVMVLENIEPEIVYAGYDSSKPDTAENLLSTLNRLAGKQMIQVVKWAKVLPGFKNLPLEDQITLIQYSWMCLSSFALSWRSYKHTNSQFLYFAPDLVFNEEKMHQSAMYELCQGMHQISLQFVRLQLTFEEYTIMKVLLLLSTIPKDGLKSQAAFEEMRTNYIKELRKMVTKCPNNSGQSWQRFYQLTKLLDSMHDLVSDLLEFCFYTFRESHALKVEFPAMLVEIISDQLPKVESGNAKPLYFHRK
As to the kind of experiment: Mineralocorticoid Receptor Binding Assay ([3H]-aldosterone displacement). The following applies: full length human MR expressed in Sf9 cells, 0.5 nM [3H]-aldosterone. Put shortly: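 Full-length human MR expressed in Sf9 cells; lysate (20-25 μg protein) incubated with 0.5 nM [3H]-aldosterone and test compound in molybdate/Tris/phosphate/glycerol buffer pH 7.5, 16 h at 4 °C. Bound ligand measured by filtration and scintillation counting; IC50 converted to Ki via Cheng-Prusoff.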
Take `Cc1ccc2c(c1)C(c1cc(C)c(O)c(C)c1)(c1cc(C)c(O)c(C)c1)C(=O)N2Cc1csc(C)n1` [Example 93, 3,3-Bis-(4-hydroxy-3,5-dimethyl-phenyl)-5-methyl-1-(2-methyl-thiazol-4-ylmethyl)-1,3-dihydro-indol-2-one]: the Ki is at most 500 nM.

With `Cc1cc(C2(c3cc(C)c(O)c(C)c3)C(=O)N(Cc3ccc(Br)cc3F)c3ccccc32)cc(C)c1O` [Example 81, 1-(4-Bromo-2-fluoro-benzyl)-3,3-bis-(4-hydroxy-3,5-dimethyl-phenyl)-1,3-dihydro-indol-2-one], the Ki is at most 500 nM.

With `Cc1cc(C2(c3ccc(O)cc3)C(=O)N(Cc3ccccc3)c3ccccc32)cc(C)c1O` (stereo not shown) [Example 29, 1-Benzyl-3-(4-hydroxy-3,5-dimethyl-phenyl)-3-(4-hydroxy-phenyl)-1,3-dihydro-indol-2-one], the Ki was at most 500 nM.

With `Cc1cc(C2(c3cc(C)c(O)c(C)c3)C(=O)N(Cc3cccc(Cl)c3)c3ccccc32)cc(C)c1O` [Example 60, 1-(3-Chloro-benzyl)-3,3-bis-(4-hydroxy-3,5-dimethyl-phenyl)-1,3-dihydro-indol-2-one], the Ki is at most 500 nM.

Consider `COc1ccccc1C(=O)CN1C(=O)C(c2cc(C)c(O)c(C)c2)(c2cc(C)c(O)c(C)c2)c2ccccc21` [Example 44, 3,3-Bis-(4-hydroxy-3,5-dimethyl-phenyl)-1-[2-(2-methoxy-phenyl)-2-oxo-ethyl]-1,3-dihydro-indol-2-one], for which the Ki was at most 500 nM.

Molecule `Cc1cc(C2(c3cc(C)c(O)c(C)c3)C(=O)N(c3cccnc3)c3ccccc32)cc(C)c1O` [Example 135, 3,3-Bis-(4-hydroxy-3,5-dimethyl-phenyl)-1-pyridin-3-yl-1,3-dihydro-indol-2-one] displayed a Ki of at most 500 nM.

For the molecule `COc1cccc(N2C(=O)C(c3cc(C)c(O)c(C)c3)(c3cc(C)c(O)c(C)c3)c3ccccc32)c1` [Example 134, 3,3-Bis-(4-hydroxy-3,5-dimethyl-phenyl)-1-(3-methoxy-phenyl)-1,3-dihydro-indol-2-one], the Ki is at most 500 nM.

As to `Cc1cc(C2(c3cc(C)c(O)c(C)c3)C(=O)N(Cc3cccc4ccccc34)c3ccccc32)cc(C)c1O` [Example 10, 3,3-Bis-(4-hydroxy-3,5-dimethyl-phenyl)-1-naphthalen-1-ylmethyl-1,3-dihydro-indol-2-one], the Ki is at most 500 nM.

Turning to `Cc1cc(C2(c3cc(C)c(O)c(C)c3)C(=O)N(Cc3cc(C(F)(F)F)ccc3F)c3ccccc32)cc(C)c1O` [Example 112, 1-(2-Fluoro-5-trifluoromethyl-benzyl)-3,3-bis-(4-hydroxy-3,5-dimethyl-phenyl)-1,3-dihydro-indol-2-one], the Ki was at most 500 nM.

As for `Cc1cc(C2(c3cc(C)c(O)c(C)c3)C(=O)N(Cc3c(C)cccc3C)c3ccccc32)cc(C)c1O` [Example 107, 1-(2,6-Dimethyl-benzyl)-3,3-bis-(4-hydroxy-3,5-dimethyl-phenyl)-1,3-dihydro-indol-2-one], the Ki is at most 500 nM.

`COc1ccc2c(c1)C(c1cc(C)c(O)c(C)c1)(c1cc(C)c(O)c(C)c1)C(=O)N2Cc1ccccc1` [Example 16, 1-Benzyl-3,3-bis-(4-hydroxy-3,5-dimethyl-phenyl)-5-methoxy-1,3-dihydro-indol-2-one] gave a Ki of at most 500 nM.

Take `Cc1cc(C2(c3cc(C)c(O)c(C)c3)C(=O)N(Cc3ccc(C(F)(F)F)cc3)c3ccccc32)cc(C)c1O` [Example 57, 3,3-Bis-(4-hydroxy-3,5-dimethyl-phenyl)-1-(4-trifluoromethyl-benzyl)-1,3-dihydro-indol-2-one]: the Ki was at most 500 nM.

As for `Cc1cc(C2(c3cc(C)c(O)c(C)c3)C(=O)N(Cc3cccc(C(F)(F)F)c3)c3ccccc32)cc(C)c1O` [Example 61, 3,3-Bis-(4-hydroxy-3,5-dimethyl-phenyl)-1-(3-trifluoromethyl-benzyl)-1,3-dihydro-indol-2-one], the Ki is at most 500 nM.

Take `Cc1nc(CN2C(=O)C(c3cc(C)c(O)c(C)c3)(c3cc(C)c(O)c(C)c3)c3ccccc32)cs1` [Example 89, 3,3-Bis-(4-hydroxy-3,5-dimethyl-phenyl)-1-(2-methyl-thiazol-4-ylmethyl)-1,3-dihydro-indol-2-one]: the Ki was at most 500 nM.

Molecule `COc1ccc(N2C(=O)C(c3cc(C)c(O)c(C)c3)(c3cc(C)c(O)c(C)c3)c3ccccc32)cc1` [Example 128, 3,3-Bis-(4-hydroxy-3,5-dimethyl-phenyl)-1-(4-methoxy-phenyl)-1,3-dihydro-indol-2-one] came in with a Ki of at most 500 nM.

Turning to `Cc1cc(C2(c3cc(C)c(O)c(C)c3)C(=O)N(CCc3scnc3C)c3ccccc32)cc(C)c1O` [Example 121, 3,3-Bis-(4-hydroxy-3,5-dimethyl-phenyl)-1-[2-(4-methyl-thiazol-5-yl)-ethyl]-1,3-dihydro-indol-2-one], the Ki is at most 500 nM.

As to `Cc1cc(C2(c3cc(C)c(O)c(C)c3)C(=O)N(Cc3cccc(N)c3)c3ccccc32)cc(C)c1O` [Example 118, 1-(3-Amino-benzyl)-3,3-bis-(4-hydroxy-3,5-dimethyl-phenyl)-1,3-dihydro-indol-2-one], the Ki was at most 500 nM.

`COC(=O)c1cccc(CN2C(=O)C(c3cc(C)c(O)c(C)c3)(c3cc(C)c(O)c(C)c3)c3ccccc32)c1` [Example 55, 3-[3,3-Bis-(4-hydroxy-3,5-dimethyl-phenyl)-2-oxo-2,3-dihydro-indol-1-ylmethyl]-benzoic acid methyl ester] showed a Ki of at most 500 nM.

`COc1ccc(OC)c(C(=O)CN2C(=O)C(c3cc(C)c(O)c(C)c3)(c3cc(C)c(O)c(C)c3)c3ccccc32)c1` [Example 49, 1-[2-(2,5-Dimethoxy-phenyl)-2-oxo-ethyl]-3,3-bis-(4-hydroxy-3,5-dimethyl-phenyl)-1,3-dihydro-indol-2-one] yielded a Ki of at most 500 nM.

In turn, `Cc1cc(C2(c3cc(C)c(O)c(C)c3)C(=O)N(c3cccc(Br)c3)c3ccccc32)cc(C)c1O` [Example 139, 1-(3-Bromo-phenyl)-3,3-bis-(4-hydroxy-3,5-dimethyl-phenyl)-1,3-dihydro-indol-2-one] registered a Ki of at most 500 nM.

In turn, `Cc1cc(C2(c3cc(C)c(O)c(C)c3)C(=O)N(Cc3ccccc3C#N)c3ccccc32)cc(C)c1O` [Example 51, 2-[3,3-Bis-(4-hydroxy-3,5-dimethyl-phenyl)-2-oxo-2,3-dihydro-indol-1-ylmethyl]-benzonitrile] displayed a Ki of at most 500 nM.

The molecule `Cc1cc(C2(c3cc(C)c(O)c(C)c3)C(=O)N(Cc3ccc(N)cc3)c3ccccc32)cc(C)c1O` [Example 117, 11-(4-Amino-benzyl)-3,3-bis-(4-hydroxy-3,5-dimethyl-phenyl)-1,3-dihydro-indol-2-one] had a Ki of at most 500 nM.

Molecule `Cc1cc(C2(c3cc(C)c(O)c(C)c3)C(=O)N(Cc3ccccn3)c3ccccc32)cc(C)c1O` [Example 100, 3,3-Bis-(4-hydroxy-3,5-dimethyl-phenyl)-1-pyridin-2-ylmethyl-1,3-dihydro-indol-2-one] yielded a Ki of at most 500 nM.

`Cc1cc(C2(c3cc(C)c(O)c(C)c3)C(=O)N(Cc3ccc(Cl)c(Cl)c3)c3ccccc32)cc(C)c1O` [Example 52, 1-(3,4-Dichloro-benzyl)-3,3-bis-(4-hydroxy-3,5-dimethyl-phenyl)-1,3-dihydro-indol-2-one]: the Ki was at most 500 nM.

Regarding `Cc1cc(C2(c3cc(C)c(O)c(C)c3)C(=O)N(Cc3ccc(F)cc3)c3ccccc32)cc(C)c1O` [Example 2], the Ki is at most 500 nM.

As usually defined, the Ki is the dissociation constant of the complex between target and ligand, obtained from inhibition or displacement. The low end stands for tighter binding, the high end for weaker binding.
